From a compilation of properties of binary mixtures (doi:10.1016/j.molliq.2022.121069)

Assay: xn = mol fraction of the nth substance listed
Settings: 101.3 kPa

CCCC[N+](CCCC)(CCCC)CCCC.[Cl-] + CNCCO
Settings | speed of sound, x1 = 0.091 [m/s] | speed of sound, x1 = 0.111 [m/s] | speed of sound, x1 = 0.1441 [m/s] | viscosity, x1 = 0.091 [mPa·s] | viscosity, x1 = 0.111 [mPa·s] | viscosity, x1 = 0.1441 [mPa·s]
293.15 K | – | 1516.6 | 1521.4 | – | 34.4 | 47.4
298.15 K | – | – | 1505.8 | – | – | 34.3
303.15 K | 1482 | 1485.3 | – | 18.5 | 20.8 | –
308.15 K | 1466.3 | 1469.8 | – | 15.1 | 16.8 | –
313.15 K | 1450.5 | 1454.2 | – | 12.7 | 14.1 | –
318.15 K | – | 1438.9 | 1443.8 | – | 11.6 | 14.1
323.15 K | 1419.5 | 1423.6 | 1428.6 | 8.93 | 9.5 | 11.8
328.15 K | 1404.1 | – | 1413.5 | 7.38 | – | 10.3
333.15 K | 1388.5 | 1393.1 | 1398.5 | 6.48 | 6.5 | 9.58

CC[N+](CC)(CC)CC.[Cl-] + CNCCO
Settings | speed of sound, x1 = 0.0914 [m/s] | speed of sound, x1 = 0.1114 [m/s] | speed of sound, x1 = 0.1413 [m/s] | viscosity, x1 = 0.0914 [mPa·s] | viscosity, x1 = 0.1114 [mPa·s] | viscosity, x1 = 0.1413 [mPa·s]
293.15 K | 1553.4 | 1565.5 | – | 20.5 | 21.9 | –
298.15 K | 1538 | 1550.1 | 1565.6 | 16.7 | 17.4 | 18.8
303.15 K | 1522.5 | – | 1550.1 | 13.5 | – | 15.2
308.15 K | – | 1519.5 | 1534.7 | – | 11.5 | 12.4
313.15 K | 1491.9 | 1504.6 | – | 9.57 | 10 | –
318.15 K | 1476.9 | 1489.4 | – | 7.92 | 8.35 | –
323.15 K | 1461.5 | – | – | 6.5 | – | –
328.15 K | – | 1458.8 | 1473.8 | – | 5.78 | 6.23
333.15 K | 1431 | 1444.6 | 1458.7 | 4.57 | 4.95 | 5.41
